Data published in patent US20080176810A1, “Use of 3, 4', 5-Trihydroxy-Stilbene-3-Beta-D-glucoside in Prepartion of Medicines For Treating and/or Preventing Ischemic Heart Disease” (SHENZHEN NEPTUNUS PHARMACEUTICAL CO., LTD., priority 2004, published 2008).

Test system: anesthetized dogs
Assay: Myocardial oxygen consumption, coronary flow, cardiac output in anesthetized dogs, iv
Assay type: in vivo
Details: c3-c8 5,15,30,60,90,120 min after administration; for cardiac output, x ± s / myocardial oxygen uptake, x ± s / coronary artery resistance, x ± s / myocardial oxygen consumption, x ± s / total peripheral resistance (TPR), x ± s: c2 0 min before
Protocol: Isosorbide Dinitrate control group were medicated by continuous intravenous infusion and other groups by intravenous injection.
The animals were anesthetised with 3% pentobarbital sodium iv at the dose of 30 mg/kg. Tracheal intubation was performed and SC-M5 anesthesia respirator (manufactured by Shanghai Medical Instrument Factory, frequency: 16˜18 per min, tidal volume: 350˜550 ml) was connected. Bilateral femoral arteries were separated for blood sampling and analyzing and measurement of mean blood pressure. Thoracotomy at the fourth intercostal space was performed to expose the heart and to open the pericardium to make pericardial hammock. Ascending aortic root and upper part of left branch of anterior descending coronary artery were dissociated to put respectively probes of electromagnetic flowmeter (MFV-1100/1200, made by Japanese Nihon Kohden Company) to measure cardiac output and coronary artery flow rate. Right jugular vein was separated for insertion of a cardiac catheter that was guided into coronary venous sinuses before fixation. Synchronously, blood was sampled by drawing from coronary sinus and femoral artery (0.5% heparin was added for anticoagulation). pO2 and pH were detected with a blood gas analyzer (DH-1830 Blood Gas Acid-base Analyze, Nanjing Ananalysis Apparatus Factor) and the values were converted to artery and venous oxygen content. After intravenous infusion of control solvent or the drug, constant infusion for all groups was completed with an electronic constant flow pump (SH-88AB Controllable Intravenous Injector made by Quanzhou Lizhong Electronic Medical Instrument Factory). Both artery and venous blood gas before administration or 5, 15, 30, 60, 90 and 120 min after administration was analyzed and mean blood pressure and cardiac output at 0, 5, 15, 30, 60, 90 and 120 min were observed.
Myocardial oxygen consumption(ml/min/100 g)=coronary flow ml/min/100 g×artery oxygen−coronary sinus oxygen ml %).
Myocardial oxygen uptake (%)=(artery oxygen ml %−coronary sinus oxygen ml %)/artery oxygen ml %
Total peripheral resistance of general circulation(dyn·s·cm−5)=mean arterial blood pressure[MAP(KPa)]×80/cardiac output[CO(L/min)]=mean arterial blood pressure[MAP(mmHg)]×10.6/cardiac output[CO(L/min)]
Coronary resistance[Kpa/ml/min]=mean arterial blood pressure[MAP(KPa)]/coronary artery flow.

[1] = TSG 5 mg/kg iv, before administration, 0 min
[2] = TSG 5 mg/kg iv, 5 min after administration
[3] = TSG 5 mg/kg iv, 15 min after administration
[4] = TSG 5 mg/kg iv, 30 min after administration
[5] = TSG 5 mg/kg iv, 60 min after administration
[6] = TSG 5 mg/kg iv, 90 min after administration
[7] = TSG 5 mg/kg iv, 120 min after administration
[8] = TSG 10 mg/kg iv, 0 min, before administration
[9] = TSG 10 mg/kg iv, 5 min after administration
[10] = TSG 10 mg/kg iv, 15 min after administration
[11] = TSG 10 mg/kg iv, 30 min after administration
[12] = TSG 10 mg/kg iv, 60 min after administration
[13] = TSG 10 mg/kg iv, 90 min after administration
[14] = TSG 10 mg/kg iv, 120 min after administration
[15] = TSG 10 mg/kg iv, before administration, 0 min

## 3,4′,5-trihydroxy-stilbene-3-β-D-glucoside [TSG]
[1]
  cardiac output, x ± s: 1.09 ± 0.14 L/min
  myocardial oxygen uptake, x ± s: 79.5 ± 6.93%
[2]
  cardiac output, variation %: 3.58 ± 2.00%
  coronary artery resistance, variation %: 3.03%
  myocardial oxygen consumption, variation %: −0.52 ± 1.59%
  myocardial oxygen uptake, variation %: 0.15%
  total peripheral resistance (TPR), variation %: −0.82 ± 2.72%
[3]
  cardiac output, variation %: 3.47 ± 0.97%
  coronary artery resistance, variation %: 2.18 ± 2.46%
  total peripheral resistance (TPR), variation %: 1.31 ± 2.04%
[4]
  cardiac output, variation %: 5.25 ± 2.62%
  coronary artery resistance, variation %: 0.02 ± 3.86%
  myocardial oxygen consumption, variation %: −0.59 ± 2.68%
  myocardial oxygen uptake, variation %: −5.76 ± 5.34 %
  total peripheral resistance (TPR), variation %: 0.90 ± 1.20%
[5]
  cardiac output, variation %: 6.05 ± 2.06 %
  coronary artery resistance, variation %: −3.62 ± 3.63%
  myocardial oxygen consumption, variation %: 0.68 ± 1.74%
  myocardial oxygen uptake, variation %: −6.24 ± 4.39 %
  total peripheral resistance (TPR), variation %: 0.20 ± 1.19%
[6]
  cardiac output, variation %: 5.98 ± 2.02 %
  coronary artery resistance, variation %: −4.03 ± 2.13%
  myocardial oxygen consumption, variation %: −0.91 ± 2.81%
  myocardial oxygen uptake, variation %: −5.51 ± 4.5 %
  total peripheral resistance (TPR), variation %: −1.59 ± 3.63%
[7]
  cardiac output, variation %: 4.86 ± 2.88%
  coronary artery resistance, variation %: −3.99 ± 3.34 %
  total peripheral resistance (TPR), variation %: −2.75 ± 3.55%
[8]
  coronary artery resistance, x ± s: 0.273 ± 0.032 Kpa/ml/min
  myocardial oxygen consumption, x ± s: 214.1 ± 6.66 mL/min.100 g^−1
  total peripheral resistance (TPR), x ± s: 891.8 ± 93.4 dyn·s·cm^−5
[9]
  cardiac output, x ± s: 1.13 ± 0.13 L/min
  coronary artery resistance, x ± s: 0.286 Kpa/ml/min
  myocardial oxygen consumption, x ± s: 211.0 ± 5.44 mL/min.100 g^−1
  myocardial oxygen uptake, x ± s: 78.7%
  total peripheral resistance (TPR), x ± s: 890.5 ± 82.2 dyn·s·cm^−5
  cardiac output, variation %: 4.60 ± 3.19%
  coronary artery resistance, variation %: 4.63%
  myocardial oxygen consumption, variation %: −1.45 ± 1.13%
  myocardial oxygen uptake, variation %: −1.46%
  total peripheral resistance (TPR), variation %: 0.02 ± 4.07%
[10]
  cardiac output, x ± s: 1.14 ± 0.14 L/min
  coronary artery resistance, x ± s: 0.278 ± 0.028 Kpa/ml/min
  total peripheral resistance (TPR), x ± s: 891.3 ± 78.1 dyn·s·cm^−5
  cardiac output, variation %: 5.74 ± 2.02 %
  coronary artery resistance, variation %: 1.79 ± 3.25%
  total peripheral resistance (TPR), variation %: 0.09 ± 2.25%
[11]
  cardiac output, x ± s: 1.16 ± 0.13 L/min
  coronary artery resistance, x ± s: 0.274 ± 0.035 Kpa/ml/min
  myocardial oxygen consumption, x ± s: 208.0 ± 5.3 mL/min.100 g^−1
  myocardial oxygen uptake, x ± s: 71.3 ± 5.28%
  total peripheral resistance (TPR), x ± s: 903.4 ± 76.9 dyn·s·cm^−5
  cardiac output, variation %: 7.43 ± 3.40 %
  coronary artery resistance, variation %: 0.21 ± 1.44%
  myocardial oxygen consumption, variation %: −2.77 ± 3.75%
  myocardial oxygen uptake, variation %: −10.7 ± 4.01 %
  total peripheral resistance (TPR), variation %: 1.49 ± 3.81%
[12]
  cardiac output, x ± s: 1.18 ± 0.14 L/min
  coronary artery resistance, x ± s: 0.267 ± 0.037 Kpa/ml/min
  myocardial oxygen consumption, x ± s: 210.3 ± 6.32 mL/min.100 g^−1
  myocardial oxygen uptake, x ± s: 71.7 ± 5.71 %
  total peripheral resistance (TPR), x ± s: 878.7 ± 90.9 dyn·s·cm^−5
  cardiac output, variation %: 9.41 ± 4.82 %
  coronary artery resistance, variation %: −2.64 ± 2.78%
  myocardial oxygen consumption, variation %: −1.75 ± 3.51%
  myocardial oxygen uptake, variation %: −10.3 ± 5.25 %
  total peripheral resistance (TPR), variation %: −1.42 ± 3.68%
[13]
  cardiac output, x ± s: 1.18 ± 0.15 L/min
  coronary artery resistance, x ± s: 0.270 ± 0.040 Kpa/ml/min
  myocardial oxygen consumption, x ± s: 209.1 ± 6.38 mL/min.100 g^−1
  myocardial oxygen uptake, x ± s: 72.4 ± 5.51 %
  total peripheral resistance (TPR), x ± s: 872.9 ± 98.6 dyn·s·cm^−5
  cardiac output, variation %: 9.05 ± 2.24 %
  coronary artery resistance, variation %: −1.69 ± 4.78%
  myocardial oxygen consumption, variation %: −2.28 ± 3.5%
  myocardial oxygen uptake, variation %: −9.32 ± 3.22 %
  total peripheral resistance (TPR), variation %: −2.16 ± 2.50%
[14]
  cardiac output, x ± s: 1.15 ± 0.16 L/min
  coronary artery resistance, x ± s: 0.263 ± 0.038 Kpa/ml/min
  total peripheral resistance (TPR), x ± s: 863.7 ± 80.0 dyn·s·cm^−5
  cardiac output, variation %: 6.53 ± 2.43 %
  coronary artery resistance, variation %: −4.10 ± 5.44 %
  total peripheral resistance (TPR), variation %: −3.00 ± 4.04%
[15]
  cardiac output, x ± s: 1.08 ± 0.15 L/min
  myocardial oxygen uptake, x ± s: 80.0 ± 6.55%
